The record followed here is PMC3637054, “Comparison of activity indexes for recognizing enzyme mutants of higher activity with uricase as model” (Chemistry Central Journal, 2013).

This assay deals with T1, uricase of Asahi-Kasei.
T1 construct: gene urate oxidase; commercial diagnostic enzyme of Asahi-Kasei
Description: UV absorbance at […] nm, initial rates, Lineweaver-Burk. The class given is biochemical. The conditions noted are these: borate buffer, 25 °C.

SMILES strings stand for the structures.

By Km is commonly meant the substrate concentration at which the rate is half of its maximum. On to `O=c1[nH]c(=O)c2[nH]c(=O)[nH]c2[nH]1` [uric acid], for which the Km is around 30 µM.
